Results on 38 compounds are retold here after patent publication US6653303B1, “Cycloalkyl, lactam, lactone and related compounds, pharmaceutical compositions comprising same, and methods for inhibiting β-amyloid peptide release and/or its synthesis by use of such compounds” (Athena Neurosciences, Inc., priority 1996, dated 2003).

A value given as a limit tells only on which side of the number the result lay.

A word on the melting point: it is the temperature, or range, at which the solid turns liquid.

`C[C@H](NC(=O)Cc1ccccc1)C(=O)NC1CCCNC(=O)C1` (stereo partly drawn) [Example 5-18, 3-(N′-(Phenylacetyl)-L-alaninyl)amino-ε-caprolactam]: the melting point was 200 to 202 °C.

Compound `C[C@H](NC(=O)Cc1cc(F)cc(F)c1)C(=O)NC1C(=O)NCc2cc(F)ccc21` (single isomer, unassigned) [Example 5-12, 4(N′-(3,5-Difluorophenylacetyl)-L-alaninyl)amino-7-fluoro-1,2,3,4tetrahydroisoquinolin-3-one] yielded a melting point of 195 to 200 °C.

On to `C[C@H](NC(=O)Cc1cc(F)cc(F)c1)C(=O)NC1C(=O)NCc2ccccc21` (stereo partly drawn) [Example 5-7, 4-(N′-(3,5-Difluorophenylacetyl)-L-alaninyl)amino-1,2,3,4-tetrahydroisoquinolin-3-one], for which the melting point lay in the range of 243 to 244 °C.

On to `CN1C(=O)C(NC(=O)[C@@H](NC(=O)Cc2cc(F)cc(F)c2)C(C)(C)C)N=C(c2ccccc2)c2ccccc21` (some centres unmarked), for which the melting point is 221 to 222 °C.

`CC(C)CN1C(=O)C(NC(=O)[C@H](C)NC(=O)Cc2cc(F)cc(F)c2)C(=O)N(CC(C)C)c2ccccc21` [Example 8-152, 3-[N′-(3,5-Difluorophenylacetyl)-L-alaninyl]amino-2,4-dioxo-1,5-bis-(2-methylpropyl)-2,3,4,5-tetrahydro-1H-1,5-benzodiazepine]: the melting point was in the range of 197 to 198 °C.

In turn, `CC(C)COC(=O)[C@H](C)NC(=O)CC1CCCCC1` [Example B70, N-(Cyclohexylacetyl)-L-alanine iso-Butyl Ester] came in with a melting point of 92 to 93 °C.

Consider `C[C@H](NC(=O)Cc1cc(F)cc(F)c1)C(=O)NC1C(=O)NCc2cc(Cc3ccccc3)ccc21` (stereo partly drawn) [Example 5-34, 4-(N′-(3,5-Difluorophenylacetyl)-L-alaninyl)amino-7-benzyl-1,2,3,4-tetrahydroisoquinolin-3-one], for which the melting point is 159 to 166 °C.

As to `C[C@H](NC(=O)C(O)c1cc(F)cc(F)c1)C(=O)NC1C(=O)N(C)c2ccccc2N(c2ccccc2)C1=O` (single isomer, unassigned), the melting point was 255 to 256 °C.

Compound `CC1CC(NC(=O)[C@H](C)NC(=O)Cc2cc(F)cc(F)c2)C(=O)N(C)c2ccccc21` (stereo partly drawn) [Example 6-8, 3-(N′-(3,5-Difluorophenylacetyl)-L-alaninyl)amino-1,5-dimethyl-1,3,4,5-tetrahydro-2H-1-benzazepin-2-one] yielded a melting point of 115 to 119 °C.

For the compound `C[C@H](NC(=O)C(O)C1CCCC1)C(=O)NC1C(=O)N(CC(C)(C)C)c2ccccc2N(CC(C)(C)C)C1=O` (stereo partly drawn) [Example 8-162, 3-[N′-(Cyclopentyl-α-hydroxyacetyl)-L-alaninyl]amino-2,4-dioxo-1,5-bis-(2,2-dimethylpropyl)-2,3,4,5-tetrahydro-1H-1,5-benzodiazepine], the melting point was 119 to 129 °C.

`C[C@H](NC(=O)Cc1cc(F)cc(F)c1)C(=O)NC1C(=O)N(C)c2ccccc2N(C)C1=O` [Example 8-150, 3-[N′-(3,5-Difluorophenylacetyl)-L-alaninyl]amino-2,4-dioxo-1,5-bis-methyl-2,3,4,5-tetrahydro-1H-1,5-benzodiazepine] returned a melting point of 206 to 207 °C.

Compound `CCOC(=O)[C@H](C)NC(=O)Cc1cc(F)cc(F)c1` [Example B64, N-[(3,5-Difluorophenyl)acetyl]alanine Ethyl Ester] returned a melting point of 93 to 95 °C.

Turning to `C[C@H](NC(=O)Cc1cc(F)cc(F)c1)C(=O)NC1C(=O)N(CCc2ccccc2)Cc2ccccc21` (stereo partly drawn) [Example 5-13, 4-(N′-(3,5-Difluorophenylacetyl)-L-alaninyl)amino-2-phenethyl-1,2,3,4-tetrahydroisoquinolin-3-one], the melting point was 75 to 76 °C.

The compound `C[C@H](NC(=O)C(=O)c1cc(F)cc(F)c1)C(=O)NC1N=C(c2ccccc2)c2ccccc2N(C)C1=O` (some centres unmarked) gave a melting point of 128 to 129 °C.

`C[C@H](NC(=O)Cc1cc(F)cc(F)c1)C(=O)NC1N=C(c2ccccc2)c2ccccc2N(CC2CC2)C1=O` (some centres unmarked) showed a melting point of 203 to 205 °C.

In turn, `C[C@H](NC(=O)Cc1cc(F)cc(F)c1)C(=O)NC1CCCCCNC(=O)C1` (stereo partly drawn) [Example 5-33, 3-(N′-(3,5-Difluorophenylacetyl)-L-alaninyl)amino-8-octanelactam] showed a melting point greater than 220 °C.

As to `C[C@H](NC(=O)Cc1cc(F)cc(F)c1)C(=O)NC1C(=O)NC(c2cccnc2)c2ccccc21` (stereo partly drawn) [Example 5-38, 4-(N′-(3,5-Difluorophenylacetyl)-L-alaninyl)amino-1-(pyrid-3-yl)-1,2,3,4-tetrahydroisoquinolin-3-one], the melting point was 100 to 120 °C.

`CN1C(=O)C(NC(=O)Cc2cc(F)cc(F)c2)N=C(c2ccccc2)c2ccccc21` (centres unmarked) returned a melting point of 236 to 239 °C.

In the case of `C[C@H](NC(=O)Cc1cc(F)cc(F)c1)C(=O)NC1C(=O)N(C)Cc2ccccc21` (stereo partly drawn) [Example 5-14, 4-(N′-(3,5-Difluorophenylacetyl)-L-alaninyl)amino-2-methyl-1,2,3,4-tetrahydroisoquinolin-3-one], the melting point fell in the range of 174 to 175 °C.

In turn, `C[C@H](NC(=O)Cc1cc(F)cc(F)c1)C(=O)NC1C(=O)NC(c2ccncc2)c2ccccc21` (stereo partly drawn) [Example 5-39, 4-(N′-(3,5-Difluorophenylacetyl)-L-alaninyl)amino-1-(pyrid-4-yl)-1,2,3,4-tetrahydroisoquinolin-3-one] gave a melting point of 100 °C.

For `CC(C)COC(=O)[C@H](C)NC(=O)CC1CCCC1` [Example B71, N-(Cyclopentylacetyl)-L-alanine iso-Butyl Ester], the melting point lay within 62 to 64 °C.

Compound `CC(C)[C@H](NC(=O)Cc1cc(F)cc(F)c1)C(=O)NC1N=C(c2ccccc2)c2ccccc2N(C)C1=O` (some centres unmarked) registered a melting point of 228 to 229 °C.

`C[C@H](NC(=O)Cc1cc(F)cc(F)c1)C(=O)N[C@@H]1CSc2ccccc2N(C)C1=O` [Example 6-12, 3-(S)-(N′-(3,5-Difluorophenylacetyl)-L-alaninyl)amino-1-methyl-5-thia-1,3,4,5-tetrahydro-2H-1-benzazepin-2-one] gave a melting point of 156 to 159 °C.

For the compound `C[C@H](NC(=O)Cc1cc(F)cc(F)c1)C(=O)NC1C(=O)NC(Cc2ccccc2)c2ccccc21` (stereo partly drawn) [Example 5-35, 4-(N′-(3,5-Difluorophenylacetyl)-L-alaninyl)amino-1-benzyl-1,2,3,4-tetrahydroisoquinolin-3-one], the melting point was in the range of 106 to 107 °C.

Consider `CC(C)N1C(=O)C(NC(=O)[C@H](C)NC(=O)Cc2cc(F)cc(F)c2)C(=O)N(C(C)C)c2ccccc21` [Example 8-146, 3-[N′-(3,5-Difluorophenylacetyl)-L-alaninyl]amino-2,4-dioxo-1,5-bis-(1-methylethyl)-2,3,4,5-tetrahydro-1H-1,5-benzodiazepine], for which the melting point is 232 to 233 °C.

`CC1NC(=O)C(NC(=O)[C@H](C)NC(=O)Cc2cc(F)cc(F)c2)c2ccccc21` (stereo partly drawn) [Example 5-9, 4-(N′-(3,5-Difluorophenylacetyl)-L-alaninyl)amino-1-methyl-1,2,3,4-tetrahydroisoquinolin-3-one] gave a melting point of 205 to 206 °C.

Turning to `CCN1C(=O)[C@@H](NC(=O)[C@H](C)NC(=O)Cc2cc(F)cc(F)c2)COc2ccccc21` [Example 6-11, 3-(S)-(N′-(3,5-Difluorophenylacetyl)-L-alaninyl)amino-1-ethyl-5-oxa-1,3,4,5-tetrahydro-2H-1-benzazepin-2-one], the melting point was in the range of 188 to 191 °C.

As to `CC1CC(NC(=O)Cc2cc(F)cc(F)c2)C(=O)N(C)c2ccccc21` (centres unmarked) [Example 6-9, 3-(3,5-Difluorophenylacetyl)amino-1,5-dimethyl-1,3,4,5-tetrahydro-2H-1-benzazepin-2-one], the melting point lay within 185 to 187 °C.

The compound `C[C@H](NC(=O)C(F)c1cc(F)cc(F)c1)C(=O)NC1N=C(c2ccccc2)c2ccccc2N(C)C1=O` (single isomer, unassigned) showed a melting point of 119 to 120 °C.

`C[C@H](NC(=O)Cc1cc(F)cc(F)c1)C(=O)NC1C(=O)NC(c2ccccn2)c2ccccc21` (stereo partly drawn) [Example 5-37, 4-(N′-(3,5-Difluorophenylacetyl)-L-alaninyl)amino-1-(pyrid-2-yl)-1,2,3,4-tetrahydroisoquinolin-3-one] gave a melting point of 100 °C.

In turn, `C[C@H](NC(=O)Cc1cc(F)cc(F)c1)C(=O)N[C@H]1COc2ccccc2N(C)C1=O` [Example 6-10, 3-(S)-(N′-(3,5-Difluorophenylacetyl)-L-alaninyl)amino-1-methyl-5-oxa-1,3,4,5-tetrahydro-2H-1-benzazepin-2-one] registered a melting point of 110 to 114 °C.

On to `C[C@H](NC(=O)Cc1cc(F)cc(F)c1)C(=O)NC1C(=O)NCc2cc(-c3ccccc3)ccc21` (stereo partly drawn) [Example 5-16, 4-(N′-(3,5-Difluorophenylacetyl)-L-alaninyl)amino-7-phenyl-1,2,3,4-tetrahydroisoquinolin-3-one], for which the melting point was > 240 °C (dec.).

As for `C[C@H](NC(=O)Cc1cc(F)cc(F)c1)C(=O)NC1C(=O)NC(c2ccccc2)c2ccccc21` (single isomer, unassigned) [Example 5-10, 4-(N′-(3,5-Difluorophenylacetyl)-L-alaninyl)amino-1-phenyl-1,2,3,4tetrahydroisoquinolin-3-one], the melting point lay in the range of 200 to 205 °C.

As to `CCN1C(=O)C(NC(=O)[C@H](C)NC(=O)Cc2cc(F)cc(F)c2)N=C(c2ccccc2)c2ccccc21` (some centres unmarked), the melting point is 155 to 158 °C.

As to `C[C@H](NC(=O)Cc1cc(F)cc(F)c1)C(=O)NC1Cc2ccccc2N(Cc2ccccc2)C1=O` (stereo partly drawn) [Example 5-6, 1-Benzyl-3-(N′-(3,5-difluorophenylacetyl)-L-alaninyl)amino-1,2,3,4-tetrahydroquinolin-2-one], the melting point is 196 to 199 °C.

With `C[C@H](NC(=O)C(O)c1cc(F)cc(F)c1)C(=O)NC1N=C(c2ccccc2)c2ccccc2N(C)C1=O` (single isomer, unassigned), the melting point lay within 240 to 241 °C.

In turn, `C[C@H](NC(=O)Cc1cc(F)cc(F)c1)C(=O)NC1C(=O)N(Cc2ccccc2)Cc2ccccc21` (stereo partly drawn) [Example 5-8, 4-(N′-(3,5-Difluorophenylacetyl)-L-alaninyl)amino-2-benzyl-1,2,3,4-tetrahydroisoquinolin-3-one] yielded a melting point of 144 to 145 °C.

The compound `CC(C)COC(=O)[C@H](C)NC(=O)CC1=CCCCC1` [Example B72, N-[(Cyclohex-1-enyl)acetyl]-L-alanine iso-Butyl Ester] showed a melting point of 49 to 51 °C.
